Laboratory results reported in patent US7018988B2, “Pharmaceutically active pyrrolidine derivatives as Bax inhibitors” (Applied Research Systems ARS Holding N.V., priority 2000, dated 2006).

Target: T1, Bax (Homo sapiens, UniProt Q07812)
T1 construct: endogenous in cells; host or cells: mitochondria isolated from HeLa cells
Test: Effect of compounds on the release of cytochrome c triggered by Bid-induced Bax activation (in vitro assay d)
Assay type: biochemical
Details: compound at 10 μM; mitochondria isolated from HeLa cells; 10 nM recombinant Bid
Description: d) Effect of Compounds according to formula I onto the Release of Cytochrome c Trig-gered by Bid-Induced Bax Activation (In Vitro Assay)
Concerning the Bid-induced activation of Bax leading to mitochondrial Cytochrome C release, it is referred to the description of Martinou et al. in The Journal of Cell Biology, Vol. 144, No. 5, Mar. 8, 1999, pages 891–901. Mitochondria isolated from HeLa cells are incubated for 15 min at 30° C. in 100 μl of KCl buffer in the presence or absence of 10 nM recombinant Bid. The various compounds (10 μM) are pre-incubated for 5 min prior to addition of Bid. Following incubation, mitochondria were centrifuged for 5 min at 13000 g at 4° C. and the supernatant is collected for cytochrome c analysis. Cytochrome c is detected by Western blotting. The cytochrome c bands are scanned and quantified using a Bio-Rad (GS-700 Imaging Densitometer).
The above set out 2 in vitro assays c) and d) involving the determination of mitochondrial cytochrome c release are based on immunochemical methods using the Western blot analysis. […]

T1 sequence (Q07812 whole entry): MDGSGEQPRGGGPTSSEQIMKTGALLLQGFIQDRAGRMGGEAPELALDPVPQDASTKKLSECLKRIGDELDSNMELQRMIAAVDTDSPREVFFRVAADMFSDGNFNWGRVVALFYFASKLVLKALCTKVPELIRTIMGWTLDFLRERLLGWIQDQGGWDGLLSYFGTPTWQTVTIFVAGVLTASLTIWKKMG

CCCCCNC(=O)N1CC(=NOC)C[C@H]1C(=O)NCCO [Example 23, (2S,4EZ)-N^2-(2-hydroxyethyl)-4-(methoxyimino)-N^1-pentyl-1,2-pyrrolidinedicarboxamide]
inhibition at 10 µM: ~79%

CCCCCNC(=O)N1CC(=NOC)C[C@H]1C(=O)N1CCN(Cc2ccc3c(c2)OCO3)CC1 [Example 28, (2S,4EZ)-2-{[4-(1,3-benzodioxol-5-ylmethyl)-1-piperazinyl]carbonyl}-4-(methoxyimino)-N-pentyl-1-pyrrolidinecarboxamide]
inhibition at 10 µM: ~59%
